Experimental data as given in article PMC11513920, “Building Metabolically Stable and Potent Anti-HIV Thioether-Lipid Analogues of Tenofovir Exalidex: A thorough Pharmacological Analysis” (Journal of Medicinal Chemistry, 2024).
Several values for one entry are separate records, joined by “and”; a condition that tells them apart may be missing. Identical values can stand only once. Counter-ions that a name gives are not always drawn. Like-named read-outs stand apart in the source and are kept apart here.

What was measured:
[1] = dogs; cited from earlier work
[2] = depending on food intake; cited from earlier work
in vitro [3] = settings: human, other cell line
Text: (§1) Naturally, due the metabolic complexity of HepaRG cells, we specifically analyzed prodrug cellular uptake and stability, as represented by Cmax and intrinsic clearance (Clint,u) accordingly (Figure 7 and Table 9).
(§2) The HepaRG cell line (HPRGC10, Thermo Fisher Scientific) was used to evaluate the cellular permeability and metabolic stability for select final compounds in vitro. The cells were initially thawed with working media composed of HepaRG Thaw, Plate, & General Purpose Medium Supplement (HPRG670), Williams Medium E (100 mL), and GlutaMax (1 mL), all purchased from Thermo Fisher Scientific. […] After the thawing medium was aspirated from each well, the cells were cultured for an additional 6 days with working media consisting of HepaRG Maintenance/Metabolism Medium Supplement (HPRG720), Williams Medium E (500 mL), and GlutaMax (1 mL), all purchased from Thermo Fisher Scientific. Upon completing the 7-day culture period, HepaRG cells were plated in enough wells to allow for duplicate analysis of prodrugs in two independent cellular uptake or metabolic stability experiments. All studied compounds were formulated with human serum albumin (HSA, 5:1 compound to HSA molar ratio) and subsequently diluted to a 20 μM final concentration with assay medium composed of serum-free INVITROGRO HI Medium and TORPEDO Antibiotic Mix purchased from BioIVT. For cellular uptake determinations, the maintenance/metabolism medium was first aspirated from each well, and then the plated cells were spiked with 1.0 mL of test compound stock solution. Subsequently, the plate was incubated at 37 °C under 5% CO2 environment over the desired time course (seven data points/compound). Blank wells not treated with prodrug were included in assay runs as controls and initial time points (0 min). At each time point, the test compound solution was removed from the appropriate wells, and the plated cells were washed with 1.0 mL of DPBS twice. The HepaRG cells were then extracted with 500 μL of cold ISTD solution (1 μM 7-ethoxy-d5-coumarin in 70/30 MeOH/H2O), and the quenched aliquots were centrifuged at 15,000 g for 10 min at 4 °C. […] After obtaining prodrug Cmax and Tmax values from the cellular uptake assay, HepaRG metabolic stability was then assessed. Following the initial 7-day culture procedure, the maintenance/metabolism medium was aspirated from each well, and the plated cells were spiked with 1.0 mL of test compound stock solution. […] The test compound solution was then removed from each well and replaced with untreated dilution medium (i.e., serum-free INVITROGRO HI Medium and TORPEDO Antibiotic Mix), initializing the stability determination. The HepaRG plate was once more incubated at 37 °C under 5% CO2 atmosphere over the desired time course (nine data points/compound), and sample preparation and analysis were handled in identical fashion to cellular uptake experiments.

[4] = Human liver microsome stability; settings: HLM 1 mg/mL, 3 μM compound, NADPH, 37 °C, 120 min course
Experimental: Human liver microsomes (HLMs, 20 mg/mL) and CD-1 mouse liver microsomes (MLMs, 20 mg/mL) were purchased from Xenotech. NADPH was purchased from Sigma-Aldrich and prepared in 10 mM stock solutions of distilled H2O (Invitrogen UltraPure). […] Test compounds and positive controls were initially dissolved in MeOH to make 10 mM stock solutions. Sample solutions were then further diluted in 70/30 MeOH/H2O to 500 μM. Next, the reactions were prepared by mixing human or mouse liver microsomes (55 μL) with potassium phosphate buffer (100 mM, 928 μL) in 1.5 mL Eppendorf tubes. The test compounds (6.6 μL of 500 μM solution) were subsequently added to the suspensions, and the reaction mixtures were incubated at 37 °C for 5 min. Afterward, the liver microsome reactions were initiated with 110 μL of 10 mM NADPH and further incubated at 37 °C for the designated time course of the study. […] Each test compound was run in tandem with positive and negative control experiments for quality assurance. Positive control reactions were conducted at a final volume of 550 μL for a single run of each time point.
For both LM and plasma stability assays, each data point was analyzed in duplicate using in-between blank washes to avoid carry over and to equilibrate the column for the subsequent runs. Averages of these duplicate for individual compounds at each time point were then normalized to the data at 0 min, representing 100% test compound remaining or 0% metabolism. Half-lives (t1/2) were calculated by plotting ln of % test compound remaining versus time and performing linear regression to determine slope.
Metabolic Stability Assays
Liver Microsome Stability
Liver Microsome Stability Assay Setup Example
Quenching Mixture: 100 µL MeOH with ISTD (2 µM d5-7-ethoxycoumarin).
Final Volume After Quenching: 200 µL (100 µL from reaction mixture + 100 µL quencher
solution; ISTD final concentration of 1.0 µM).

[5] = liver, p.o. 10 mg/kg; cited from earlier work
HepaRG cells [6] = test: HepaRG cellular uptake; settings: for mean prodrug concentration in HepaRG cells: 20 µM; for HepaRG Cmax: 20 μM, HSA formulation 5:1, recorded after 3 h incubation
Text: as §1, §2

[7] = Cellular cytotoxicity (cell viability, CellTiter 96 or resazurin); settings: human, CC50, HEK293T cells, compounds formulated with HSA (5:1)
HepaRG cells [8] = test: HepaRG cellular metabolic stability; settings: for HepaRG t1/2: after 3 h loading at 20 μM, 37 °C; for HepaRG Clint,u: calculated from cellular t1/2
Text: as §1, §2

in vitro [9] = settings: human, HepaRG Cmax, 20 μM, HSA formulation 5:1, recorded after 3 h incubation
Text: as §1, §2

[10] = plasma, p.o. 10 mg/kg; cited from earlier work
HEK293T cells = system: HEK293T cells; parameters: method as in PMID 34459598; settings: previously reported lead; cited from earlier work
[11] = system: HIV-1 subtype C strain MJ4; parameters: method as in PMID 34459598; settings: previously reported lead; cited from earlier work
HepaRG cellular uptake = settings: human, HepaRG Cmax, 20 μM, HSA formulation 5:1, recorded after 3 h incubation
Text: as §1, §2

[12] = HepaRG cellular metabolic stability; settings: human, other cell line
Text: as §1, §2

[13] = HepaRG Clint,u, calculated from cellular t1/2
[14] = HepaRG t1/2, after 3 h loading at 20 μM, 37 °C

SMILES	Prodrug AUC0-24h [5]	Prodrug Cmax [5] [ng/mL]	mean prodrug concentration in HepaRG cells (HepaRG cells [6]; 0.5 h) [ng/mL]	mean prodrug concentration in HepaRG cells (HepaRG cells [6]; 1 h) [ng/mL]	mean prodrug concentration in HepaRG cells (HepaRG cells [6]; 2 h) [ng/mL]	mean prodrug concentration in HepaRG cells (HepaRG cells [6]; 3 h) [ng/mL]	mean prodrug concentration in HepaRG cells (HepaRG cells [6]; 5 h) [ng/mL]	mean prodrug concentration in HepaRG cells (HepaRG cells [6]; 7 h) [ng/mL]	HepaRG Cmax (HepaRG cells [6]) [ng/mL]	HepaRG t1/2 (HepaRG cells [8]) [min]	HepaRG Clint,u (HepaRG cells [8]) [μL/min/million cells]	Prodrug AUC0-24h [10] [ng·h/mL]	Prodrug Cmax [10] [ng/mL]	Prodrug Tmax [10] [min]	Prodrug t1/2 [10] [min]	k [10]	further results
CC(C)OC(=O)[C@H](C)N[P@](=O)(CO[C@H](C)Cn1cnc2c(N)ncnc21)Oc1ccccc1 [TAF, tenofovir alafenamide]	–	–	–	–	–	–	–	–	–	–	–	–	–	–	–	–	share of oral dose undergoing hepatic processing [1]: 65%
CC(C)OC(=O)OCOP(=O)(CO[C@H](C)Cn1cnc2c(N)ncnc21)OCOC(=O)OC(C)C [TDF, tenofovir disoproxil fumarate]	–	–	–	–	–	–	–	–	–	–	–	–	–	–	–	–	oral bioavailability [2]: 25–40%
CCCCCCCCCCCCCCCCOCCCOP(=O)(O)CO[C@H](C)Cn1cnc2c(N)ncnc21 [TXL, tenofovir exalidex]	4970 ng·h/mL	2730	258.83	311.46	378.66	397.09	468.27	536.47	397.1 ± 1.4	44.3 ± 0.5	28.5	301	125	60	175	0.237	hepatocyte CLint (in vitro [3]; [13]): ~29 µL/min/1e6 cells; half-life (in vitro [3]; [14]): 43 to 44 min; HLM t1/2 [4]: 42 min and 41.6 ± 9.0 ^d min; Prodrug Tmax [5]: 60 min; CC50 at 48 h [7]: 97.6 ± 2.7 µM; Cmax (in vitro [9]): 397 ng/mL
C[C@H](Cn1cnc2c(N)ncnc21)OCP(=O)(O)OCCCOCCCCCCCCCCCCCCCC(F)(F)F.N [compound 1]	109,000 h·ng/mL	8710	141.43	180.34	319.83	337.43	321.56	417.13	337.4 ± 1.0	42.9 ± 0.5	29.4	1280	125	120	520	0.080	CC50 (HEK293T cells): > 100 µM; IC50 [11]: 0.049 ± 0.01 µM; Cmax at 3 h, 20 μM (HepaRG cellular uptake): 337 ng/mL; hepatocyte CLint at 20 μM [12, 13]: ~29 µL/min/1e6 cells; half-life at 20 μM [12, 14]: 43 to 44 min
